Experimental data reported in PMC11703214 (bioRxiv, 2024).

Experiments:
Format in all cases: cell-based
gACh3.0 = assay: Fluorescence imaging; conditions: read-out: EC50 (μM), normalized dose-response curves, HEK293T; n = 3
iAChSnFR = assay: Fluorescence imaging; conditions: read-out: EC50 (μM), normalized dose-response curves, HEK293T; n = 3
G protein pathway = assay: Luciferase complementation assay; conditions: ACh 0.1 nM to 100 μM
β-arrestin pathway = assay: Tango assay; conditions: ACh 0.01 nM to 100 μM

Row | Compound | EC50 (gACh3.0) [µM] | EC50 (iAChSnFR) [µM] | coupling to G protein pathway (G protein pathway) | coupling to β-arrestin pathway (β-arrestin pathway)
1 | CC(=O)OCC[N+](C)(C)C [ACh, acetylcholine] | 2.2 | 8.8 | – | –
2 | wild-type human M3R: wild-type human type 3 muscarinic ACh receptor, positive control for downstream coupling | – | – | robust coupling | robust coupling
